{
  "source": "patent US10266544B2",
  "about": "“Aryl substituted aminomethyl spectinomycin analogs as antibacterial agents” (ST. JUDE CHILDREN'S RESEARCH HOSPITAL, INC., priority 2013, dated 2019)",
  "tested_on": "live vaccine strain (LVS) of Francisella tularensis",
  "experiment": "microbe, parasite or virus in culture",
  "type": "cell-based",
  "conditions": "introduction of the methyl-linked phenyl ring",
  "note": "Where a name gives a salt, the structure may show the parent alone.",
  "data": [
    {"smiles": "CN[C@@H]1[C@H](O)[C@H](NC)[C@H]2O[C@]3(O)[C@H](O[C@@H]2[C@H]1O)O[C@H](C)C[C@@]3(O)CNCc1ccccc1", "note": "[compound 1, 3′-(R)-3′-(benzylaminomethyl)dihydrospectinomycin Trihydrochloride]", "values": [
      {"measurement": "activity against Francisella tularensis LVS", "value": "well tolerated"}
    ]}
  ]
}
